The values below are quoted from earlier work in patent US8153159B2, “Modafinil modified release pharmaceutical compositions” (Cephalon, Inc., priority 2003, dated 2012).

For one data set, the system named is mice. The following applies: single administration, Duteil et al. 1990.
The test system of a further data set is monkeys. Particulars: single administration, Duteil et al. 1990.
The next data set has as its system humans. The following applies: Bastuji et al. 1988.

Regarding `NC(=O)C[S+]([O-])C(c1ccccc1)c1ccccc1` (stereo not drawn) [Modafinil, 2-(benzhydrylsulfinyl)acetamide], the locomotor activity result in the data set with mice is “increased locomotor activity”. For the same molecule, the nocturnal activity result in the data set on monkeys is on record as “increased nocturnal activity”. Besides, the “treatment of idiopathic hypersomnia and narcolepsy” value with humans is given as “successfully tested”.
